Experimental data taken from the NIST ThermoML archive (doi:10.1016/j.jct.2004.10.005).

Assay: molar heat capacity at constant pressure
Details: 101.33 kPa

BrC12CC3CC(CC(C3)C1)C2 [1-bromotricyclo[3.3.1.1(3,7)]decane]
Details | molar heat capacity at constant pressure [J/K/mol]
5 K, Crystal 4, Vacuum adiabatic calorimetry | 0.6485
10 K, Crystal 4, Vacuum adiabatic calorimetry | 4.755
15 K, Crystal 4, Vacuum adiabatic calorimetry | 11.51
20 K, Crystal 4, Vacuum adiabatic calorimetry | 18.36
25 K, Crystal 4, Vacuum adiabatic calorimetry | 24.35
30 K, Crystal 4, Vacuum adiabatic calorimetry | 29.52
31 K, Crystal 3, Vacuum adiabatic calorimetry | 30.48
31 K, Crystal 4, Vacuum adiabatic calorimetry | 30.48
35 K, Crystal 3, Vacuum adiabatic calorimetry | 33.96
40 K, Crystal 3, Vacuum adiabatic calorimetry | 37.77
45 K, Crystal 3, Vacuum adiabatic calorimetry | 41.08
50 K, Crystal 3, Vacuum adiabatic calorimetry | 44.09
60 K, Crystal 3, Vacuum adiabatic calorimetry | 49.73
70 K, Crystal 3, Vacuum adiabatic calorimetry | 55.13
80 K, Crystal 3, Vacuum adiabatic calorimetry | 60.5
90 K, Crystal 3, Vacuum adiabatic calorimetry | 65.87
100 K, Crystal 3, Vacuum adiabatic calorimetry | 71.25
110 K, Crystal 3, Vacuum adiabatic calorimetry | 76.65
120 K, Crystal 3, Vacuum adiabatic calorimetry | 82.11
130 K, Crystal 3, Vacuum adiabatic calorimetry | 87.63
140 K, Crystal 3, Vacuum adiabatic calorimetry | 93.24
150 K, Crystal 3, Vacuum adiabatic calorimetry | 99.03
160 K, Crystal 3, Vacuum adiabatic calorimetry | 105
170 K, Crystal 3, Vacuum adiabatic calorimetry | 111.2
180 K, Crystal 3, Vacuum adiabatic calorimetry | 117.7
190 K, Crystal 3, Vacuum adiabatic calorimetry | 124.4
200 K, Crystal 3, Vacuum adiabatic calorimetry | 131.5
210 K, Crystal 3, Vacuum adiabatic calorimetry | 138.9
220 K, Crystal 3, Vacuum adiabatic calorimetry | 146.5
230 K, Crystal 3, Vacuum adiabatic calorimetry | 154.9
240 K, Crystal 3, Vacuum adiabatic calorimetry | 164.8
250 K, Crystal 3, Vacuum adiabatic calorimetry | 175.5
260 K, Crystal 3, Vacuum adiabatic calorimetry | 185.9
270 K, Crystal 3, Vacuum adiabatic calorimetry | 195.4
273.15 K, Crystal 3, Vacuum adiabatic calorimetry | 198.1
280 K, Crystal 3, Vacuum adiabatic calorimetry | 203.6
282.2 K, Crystal 2, Vacuum adiabatic calorimetry | 205.2
282.2 K, Crystal 3, Vacuum adiabatic calorimetry | 205.2
290 K, Crystal 2, Vacuum adiabatic calorimetry | 210.6
298.15 K, Crystal 2, Vacuum adiabatic calorimetry | 215.4
300 K, Crystal 2, Vacuum adiabatic calorimetry | 216.5
309.9 K, Crystal 1, Vacuum adiabatic calorimetry | 246.3
309.9 K, Crystal 2, Vacuum adiabatic calorimetry | 221.9
310 K, Crystal 1, Vacuum adiabatic calorimetry | 246.5
320 K, Crystal 1, Vacuum adiabatic calorimetry | 257.5
330 K, Crystal 1, Large sample (1 g) DSC | 279.7
340 K, Crystal 1, Large sample (1 g) DSC | 297
350 K, Crystal 1, Large sample (1 g) DSC | 302.1
360 K, Crystal 1, Large sample (1 g) DSC | 305.2
370 K, Crystal 1, Large sample (1 g) DSC | 305.7
380 K, Crystal 1, Large sample (1 g) DSC | 305.9
390 K, Crystal 1, Large sample (1 g) DSC | 306.1
391.8 K, Crystal 1, Large sample (1 g) DSC | 306.1

Liquid, Large sample (1 g) DSC
Details | molar heat capacity at constant pressure [J/K/mol]
391.8 K | 311.4
400 K | 311.6
410 K | 312
420 K | 312.3
430 K | 312.7
